Laboratory results as given in ChEMBL document CHEMBL1152860, “Synthesis and antiproliferative activity of 3-amino-N-phenyl-1H-indazole-1-carboxamides” (2009).

Columns and labels:
Format in all cases: functional
DU-145 = experiment: Growth inhibition of human DU145 cells after 48 hrs by SRB assay; settings: DU-145, 48 h
KM12 = experiment: Growth inhibition of human KM12 cells after 48 hrs by SRB assay; settings: KM12, 48 h
NCI-H460 = experiment: Growth inhibition of human NCI-H460 cells after 48 hrs by SRB assay; settings: NCI-H460, 48 h
Malme-3M = experiment: Growth inhibition of human MALME-3M cells after 48 hrs by SRB assay
MOLT-4 = experiment: Growth inhibition of human MOLT4 cells after 48 hrs by SRB assay; settings: MOLT-4, 48 h
HCT-116 = experiment: Growth inhibition of human HCT116 cells after 48 hrs by SRB assay; settings: HCT-116, 48 h
SK-MEL-2 = experiment: Growth inhibition of human SK-MEL-2 cells after 48 hrs by SRB assay; settings: SK-MEL-2, 48 h
T47D = experiment: Growth inhibition of human T47D cells after 48 hrs by SRB assay
UACC-62 = experiment: Growth inhibition of human UACC62 cells after 48 hrs by SRB assay; settings: UACC-62, 48 h
RXF 393 = experiment: Growth inhibition of human […] cells after 48 hrs by SRB assay; settings: RXF 393, 48 h
SK-MEL-28 = experiment: Growth inhibition of human SK-MEL-28 cells after 48 hrs by SRB assay; settings: SK-MEL-28, 48 h
BT-549 = experiment: Growth inhibition of human BT549 cells after 48 hrs by SRB assay; settings: BT-549, 48 h
PC-3 = experiment: Growth inhibition of human PC3 cells after 48 hrs by SRB assay; settings: PC-3, 48 h
NCI-H226 = experiment: Growth inhibition of human NCI-H226 cells after 48 hrs by SRB assay; settings: NCI-H226, 48 h
HOP-92 = experiment: Growth inhibition of human HOP92 cells after 48 hrs by SRB assay; settings: HOP-92, 48 h
CAKI-1 = experiment: Growth inhibition of human Caki1 cells after 48 hrs by SRB assay; settings: CAKI-1, 48 h
786-0 = experiment: Growth inhibition of human 786-0 cells after 48 hrs by SRB assay; settings: 786-0, 48 h
UACC-257 = experiment: Growth inhibition of human UACC257 cells after 48 hrs by SRB assay; settings: UACC-257, 48 h
OVCAR-8 = experiment: Growth inhibition of human OVCAR8 cells after 48 hrs by SRB assay; settings: OVCAR-8, 48 h
NCI-H23 = experiment: Growth inhibition of human NCI-H23 cells after 48 hrs by SRB assay; settings: NCI-H23, 48 h
MDA-MB-231 = experiment: Growth inhibition of human MDA-MB-231 cells after 48 hrs by SRB assay; settings: MDA-MB-231, 48 h
A549 = experiment: Growth inhibition of human A549 cells after 48 hrs by SRB assay; settings: A549, 48 h
OVCAR-3 = experiment: Growth inhibition of human OVCAR-3 cells after 48 hrs by SRB assay; settings: OVCAR-3, 48 h
NCI/ADR-RES = experiment: Growth inhibition of human NCI/ADR-RES cells after 48 hrs by SRB assay
HCC 2998 = experiment: Growth inhibition of human HCC2998 cells after 48 hrs by SRB assay; settings: HCC 2998, 48 h
COLO 205 = experiment: Growth inhibition of human COLO205 cells after 48 hrs by SRB assay; settings: COLO 205, 48 h
UO-31 = experiment: Growth inhibition of human UO31 cells after 48 hrs by SRB assay; settings: UO-31, 48 h
SR = experiment: Growth inhibition of human SR cells after 48 hrs by SRB assay
IGROV-1 = experiment: Growth inhibition of human IGROV1 cells after 48 hrs by SRB assay; settings: IGROV-1, 48 h
MCF7 = experiment: Growth inhibition of human MCF7 cells after 48 hrs by SRB assay; settings: MCF7, 48 h
NCI-H522 = experiment: Growth inhibition of human NCI-H522 cells after 48 hrs by SRB assay; settings: NCI-H522, 48 h
SNB-19 = experiment: Growth inhibition of human SNB19 cells after 48 hrs by SRB assay; settings: SNB-19, 48 h
SF-539 = experiment: Growth inhibition of human SF539 cells after 48 hrs by SRB assay; settings: SF-539, 48 h
SF-268 = experiment: Growth inhibition of human SF268 cells after 48 hrs by SRB assay; settings: SF-268, 48 h
SK-OV-3 = experiment: Growth inhibition of human SKOV3 cells after 48 hrs by SRB assay; settings: SK-OV-3, 48 h
K562 = experiment: Growth inhibition of human K562 cells after 48 hrs by SRB assay; settings: K562, 48 h
MDA-MB-435 = experiment: Growth inhibition of human MDA-MB-435 cells after 48 hrs by SRB assay; settings: MDA-MB-435, 48 h
A498 = experiment: Growth inhibition of human A498 cells after 48 hrs by SRB assay; settings: A498, 48 h
M14 = experiment: Growth inhibition of human M14 cells after 48 hrs by SRB assay; settings: M14, 48 h
SW-620 = experiment: Growth inhibition of human SW620 cells after 48 hrs by SRB assay; settings: SW-620, 48 h
SN12C = experiment: Growth inhibition of human SN12C cells after 48 hrs by SRB assay
ACHN = experiment: Growth inhibition of human ACHN cells after 48 hrs by SRB assay
EKVX = experiment: Growth inhibition of human EKVX cells after 48 hrs by SRB assay
[1] = Growth inhibition of human Hs 578T cells after 48 hrs by SRB assay
HL-60(TB) = experiment: Growth inhibition of human HL-60(TB) cells after 48 hrs by SRB assay; settings: HL-60, 48 h
OVCAR-5 = experiment: Growth inhibition of human OVCAR5 cells after 48 hrs by SRB assay; settings: OVCAR-5, 48 h
TK-10 = experiment: Growth inhibition of human TK10 cells after 48 hrs by SRB assay; settings: TK-10, 48 h
SF-295 = experiment: Growth inhibition of human SF295 cells after 48 hrs by SRB assay; settings: SF-295, 48 h
RPMI-8226 = experiment: Growth inhibition of human RPMI8226 cells after 48 hrs by SRB assay; settings: RPMI-8226, 48 h
LOX IMVI = experiment: Growth inhibition of human LOXIMVI cells after 48 hrs by SRB assay
HT-29 = experiment: Growth inhibition of human HT-29 cells after 48 hrs by SRB assay; settings: HT-29, 48 h
OVCAR-4 = experiment: Growth inhibition of human OVCAR4 cells after 48 hrs by SRB assay; settings: OVCAR-4, 48 h
HCT-15 = experiment: Growth inhibition of human HCT15 cells after 48 hrs by SRB assay; settings: HCT-15, 48 h
SK-MEL-5 = experiment: Growth inhibition of human SK-MEL-5 cells after 48 hrs by SRB assay; settings: SK-MEL-5, 48 h
HOP-62 = experiment: Growth inhibition of human HOP62 cells after 48 hrs by SRB assay; settings: HOP-62, 48 h
NCI-H322M = experiment: Growth inhibition of human NCI-H322M cells after 48 hrs by SRB assay
U-251 = experiment: Growth inhibition of human U251 cells after 48 hrs by SRB assay; settings: U-251, 48 h

`Nc1nn(C(=O)Nc2c(F)cccc2F)c2ccccc12` showed a GI50 (DU-145) of 62.3 µM, a GI50 (KM12) of 86.2 µM and a GI50 (NCI-H460) of 33.4 µM. It also gave a GI50 (Malme-3M) of less than 100 µM, a GI50 (MOLT-4) of 32.7 µM and a GI50 (HCT-116) of 34.8 µM. It also gave a GI50 (SK-MEL-2) of less than 100 µM, a GI50 (T47D) of 68.7 µM and a GI50 (UACC-62) of 43.9 µM. The GI50 (RXF 393) was 20.2 µM, the GI50 (SK-MEL-28) was 56.3 µM and the GI50 (BT-549) was 28.8 µM. The GI50 (PC-3) was less than 100 µM, the GI50 (NCI-H226) was 98.5 µM and the GI50 (HOP-92) was 17.3 µM. It also gave a GI50 (CAKI-1) of 45.3 µM, a GI50 (786-0) of less than 100 µM and a GI50 (UACC-257) of 71.7 µM. The GI50 (OVCAR-8) was 44.2 µM, the GI50 (NCI-H23) was 95.6 µM and the GI50 (MDA-MB-231) was 98.8 µM. The GI50 (A549) was 48.5 µM, the GI50 (OVCAR-3) was 65.7 µM and the GI50 (NCI/ADR-RES) was 56.5 µM. The GI50 (HCC 2998) was 95.8 µM, the GI50 (COLO 205) was less than 100 µM and the GI50 (UO-31) was 18.6 µM. For the same molecule, the GI50 (SR) was 12.9 µM, the GI50 (IGROV-1) was 7.7 µM and the GI50 (MCF7) was 60 µM. It also gave a GI50 (NCI-H522) of 55.1 µM, a GI50 (SNB-19) of less than 100 µM and a GI50 (SF-539) of 31.4 µM. It also gave a GI50 (SF-268) of 36.2 µM, a GI50 (SK-OV-3) of less than 100 µM and a GI50 (K562) of less than 100 µM. The GI50 (MDA-MB-435) was 54.9 µM, the GI50 (A498) was 31.4 µM and the GI50 (M14) was 74.7 µM. The GI50 (SW-620) was 38.3 µM, the GI50 (SN12C) was less than 100 µM and the GI50 (ACHN) was 50.1 µM. For the same molecule, the GI50 (EKVX) was 84 µM, the GI50 [1] was 73 µM and the GI50 (HL-60(TB)) was 33.2 µM. It also gave a GI50 (OVCAR-5) of less than 100 µM, a GI50 (TK-10) of less than 100 µM and a GI50 (SF-295) of 54.8 µM. For the same molecule, the GI50 (RPMI-8226) was 16.1 µM, the GI50 (LOX IMVI) was 49.3 µM and the GI50 (HT-29) was 74.6 µM. For the same molecule, the GI50 (OVCAR-4) was 57.8 µM, the GI50 (HCT-15) was 40.9 µM and the GI50 (SK-MEL-5) was 39.7 µM. The GI50 (HOP-62) was 51 µM, the GI50 (NCI-H322M) was less than 100 µM and the GI50 (U-251) was 96.1 µM.
